Experimental data published in patent publication US20180008579A1, “PHARMACEUTICAL COMPOSITION FOR PREVENTING OR TREATING CHRONIC MYELOID LEUKEMIA AND METHOD USING THE SAME” (MEDPACTO INC., priority 2015, published 2018).

What was measured:
TT-CML affected mouse [1] = assay: Flow cytometry of GFP/BCR-ABL+ KLS+ and KLS- cells in TT-CML affected mouse; format: in vivo; details: TEW-7197 2.5 mg/kg/day every three days, oral, 30 days, peripheral blood
Method: GFP/BCR-ABL^+c-Kit^+Lineage^−Sca-1^+(KLS^+) cells (bold box) and c-Kit^+Lineage^−Sca-1^− (KLS^−) cells (dotted box) in the peripheral blood were analyzed by flow cytometry, and the results are shown in FIG. 4A.

[2] = test system: TKI-resistant T315I TT-CML affected mouse; assay: Flow cytometry of T315I BCR-ABL-GFP+ KLS+ and KLS- cells in TKI-resistant T315I TT-CML affected mouse; format: in vivo; details: ponatinib 15 mg/kg/day, TEW-7197 2.5 mg/kg/day every three days, oral, 30 days; peripheral blood; FIG. 5C
Method: T315I BCR-ABL-GFP^+KLS^+ cells (bold box) and KLS^− cells (dotted box) in the peripheral blood were analyzed by flow cytometry, and the results are shown in FIG. 5A.

TT-CML affected mouse [3] = assay: Peripheral blood leukocyte number, spleen and cell lineage in drug-administered TT-CML affected mouse; format: in vivo; details: TEW-7197 2.5 mg/kg/day every three days, oral
Description: The number of leukocyte in the peripheral blood of the drug-administered TT-CML affected mouse is shown in FIG. 3A (n=5, NS: not significant), a photograph of the spleen thereof is shown in FIG. 3B (bar: 10 mm), and the weight of the spleen thereof is shown in FIG. 3C (n=3). Further, percentages (%) of T cell (detected using anti-CD4 antibody and anti-CD8 antibody), B cell (detected using anti-B220 antibody), and bone marrow cell (detected using anti-Macl antibody and anti-Gr-1 antibody) among the total BCR-ABL1-GFP^+ cells in the peripheral blood of the TEW-7197-administered TT-CML affected mouse are shown in FIG. 3D (n=3, NS: not significant).

[4] = test system: human CML-initiating cells; assay: Colony formation of human CML-initiating cells (CD34+CD38-Lin-) co-cultured with OP-9 stromal cells; format: cell-based; details: cells of three CML patients, co-culture with OP-9, 3% oxygen; combination compared to single treatment of dasatinib; FIGS. 6A-6C
Method: Bone marrow mononuclear cells (Allcells, Cat. No. 06-255, 06-620, and 147742, CA) of three patients with chronic CML were prepared. Bone marrow mononuclear cells were stained with anti-CD34(8G12) antibody (BD Biosciences), anti-CD38(HIT2) antibody (BD Biosciences), anti-CD3(SK7) antibody (BD Biosciences), anti-CD16(3G8) antibody (BD Biosciences), anti-CD19(SJ25C1) antibody (BD Biosciences), anti-CD20([…]) antibody (BD Biosciences), anti-CD14(MfP9) antibody (BD Biosciences), and anti-CD56(NCAM16.2) antibody (BD Biosciences). A mouse antibody cocktail recognizing CD3, CD16, CD19, CD20, CD14 and CD56 was used to identify Lineage^- (Lin^-) cells, and CD34^+CD38^-Lin^- cells were separated. […] A control group was prepared in the same manner, except that DMSO was used. Cells were harvested and washed with PBS, and then cultured in methyl cellulose (Stem cell technologies, GFM3434) to measure colony formation of human CML-initiating cells.

## Cc1cccc(-c2[nH]c(CNc3ccccc3F)nc2-c2ccc3ncnn3c2)n1 [TEW-7197, N-((4-([1,2,4]triazolo[1,5-a]pyridin-6-yl)-5-(6-methylpyridin-2-yl)-1H-imidazol-2-yl)methyl)-2-fluoroaniline]
TT-CML affected mouse [1]; FIG. 4C
  percentage of KLS+ cells among BCR-ABL1-GFP+ CML cells: remarkably decreased
TT-CML affected mouse [1]; dasatinib 5 mg/kg/day, FIG. 4B
  percentage of KLS- cells among BCR-ABL1-GFP+ CML cells: remarkably decreased
[2]
  percentage of T315I BCR-ABL-GFP+KLS+ cells: remarkably decreased
TT-CML affected mouse [3]; FIG. 3D
  differentiation of bone marrow cells among the BCR-ABL1-GFP+ cells in peripheral blood: did not affect differentiation of bone marrow cells
TT-CML affected mouse [3]; dasatinib 5 mg/kg/day, about 30 days, compared to vehicle, FIG. 3A
  number of leukocyte in the peripheral blood: increased
TT-CML affected mouse [3]; dasatinib 5 mg/kg/day, about 30 days, compared to vehicle, FIGS. 3B, 3C
  splenomegaly (spleen weight): promoted
[4]
  colony formation of human CML-initiating cells: significantly inhibited colony formation
